Laboratory results as given in patent US20030162763A1, “Novel cephalosporin compounds and process for preparing the same” (priority 2000, published 2003).
Values after ≈ are worked out from the molar mass of the structure shown. Where two headings read alike, the source gives them in different places.

Assays:
Test in all cases: Minimum Inhibitory Concentration (MIC), agar dilution
[1] = test system: E. faecalis L239; type: cell-based; settings: Enterococcus faecalis, read-out: Sensitivity test result (MIC), E. faecalis L239
Procedure: (§1) The effectiveness of the compound according to the present invention was determined by obtaining Minimum Inhibitory Concentration (MIC) of the compounds prepared by the above examples (I-1 to I-6) and vancomycin, which is the known compound having a potent activity against gram-positive strains, as the control drug against the standard strains. Specifically, Minimum Inhibitory Concentration was obtained by diluting the test material with a double dilution method, dispersing them in Mueller-Hinton agar medium, inoculating each of the test strain having 10^7 cfu (colony forming unit) per ml in an amount of 2 μl to the medium and then incubating them at 37° C. for 20 hours. From the result of Minimum Inhibitory Concentration test, it can be seen that the compound according to the present invention has a good activity against major pathogenic microorganisms, which cause hospital infection, including MRSA strains.

[2] = test system: S. epidermidis R005; type: cell-based; settings: for MIC: Staphylococcus epidermidis, read-out: Sensitivity test result (MIC), S. epidermidis R005
Procedure: as §1

[3] = test system: Staphylococcus aureus giorgio; type: cell-based; settings: for MIC: Staphylococcus aureus, read-out: Sensitivity test result (MIC), Staphylococcus aureus giorgio
Procedure: as §1

[4] = test system: S. aureus 241; type: cell-based, Staphylococcus aureus; settings: read-out: Sensitivity test result (MIC), S. aureus 241
Procedure: as §1

[5] = test system: S. aureus 77; type: cell-based, Staphylococcus aureus; settings: for MIC: read-out: Sensitivity test result (MIC), S. aureus 77
Procedure: as §1

[6] = test system: E. faecalis EFS004; type: cell-based; settings: Enterococcus faecalis, read-out: Sensitivity test result (MIC), E. faecalis EFS004
Procedure: as §1

[7] = test system: Staphylococcus aureus K311; type: cell-based; settings: read-out: Sensitivity test result (MIC), Staphylococcus aureus K311
Procedure: as §1

[8] = L239, Table 1, Mueller-Hinton agar, 37° C., 20 hours
[9] = R005, Table 1, Mueller-Hinton agar, 37° C., 20 hours
[10] = Table 1, Mueller-Hinton agar, 37° C., 20 hours
[11] = Staphylococcus aureus, 241, Table 1, Mueller-Hinton agar, 37° C., 20 hours
[12] = Staphylococcus aureus, 77, Table 1, Mueller-Hinton agar, 37° C., 20 hours
[13] = EFS004, Table 2, Mueller-Hinton agar, 37° C., 20 hours
[14] = R005, Table 2, Mueller-Hinton agar, 37° C., 20 hours
[15] = K311, Table 2, Mueller-Hinton agar, 37° C., 20 hours
[16] = Table 2, Mueller-Hinton agar, 37° C., 20 hours
[17] = Staphylococcus aureus, 77, Table 2, Mueller-Hinton agar, 37° C., 20 hours

| SMILES | MIC [1, 8] [µg/mL] | MIC [2, 9] [µg/mL] | MIC [3, 10] [µg/mL] | MIC [4, 11] [µg/mL] | MIC [5, 12] [µg/mL] | other results |
| --- | --- | --- | --- | --- | --- | --- |
| Nc1nc(O)cc(SC2=C(C(=O)O)N3C(=O)[C@@H](NC(=O)CSc4cc(Cl)ccc4Cl)[C@H]3SC2)n1 [Compound I-2, (6R,7R)-3-[(2-amino-6-hydroxy-4-pyrimidinyl)sulfanyl]-7-({2-[(2,5-dichloro-phenyl)sulfanyl]acetyl}amino)-8-oxo-5-thia-1-azabicyclo[4.2.0]oct-2-ene-2-carboxylic acid] | 2 (≈ 3.57 µM) | 0.5 (≈ 0.892 µM) | 0.031 (≈ 0.0553 µM) | 4 (≈ 7.14 µM) | 0.5 (≈ 0.892 µM) | – |
| Nc1ccnc(SC2=C(C(=O)O)N3C(=O)[C@@H](NC(=O)Cc4ccccc4)[C@H]3SC2)n1 [Compound I-4, (6R,7R)-3-[(4-amino-2-pyrimidinyl)sulfanyl]-8-oxo-7-[(phenylacetyl)amino]-5-thia-1-azabicyclo[4.2.0]oct-2-ene-2-carboxylic acid] | > 64 | 32 (≈ 72.2 µM) | 4 (≈ 9.02 µM) | > 64 | 32 (≈ 72.2 µM) | – |
| Nc1cc(SC2=C(C(=O)O)N3C(=O)[C@@H](NC(=O)CSc4c(Cl)cccc4Cl)[C@H]3SC2)nc(O)n1 [Compound I-3, (6R,7R)-3-[(6-amino-2-hydroxy-4-pyrimidinyl)sulfanyl]-7-({2-[(2,6-dichloro-phenyl)sulfanyl]acetyl}amino)-8-oxo-5-thia-1-azabicyclo[4.2.0]oct-2-ene-2-carboxylic acid] | 2 (≈ 3.57 µM) | 0.5 (≈ 0.892 µM) | 0.016 (≈ 0.0285 µM) | 4 (≈ 7.14 µM) | 1 (≈ 1.78 µM) | – |
| Nc1nc(O)cc(SC2=C(C(=O)O)N3C(=O)[C@@H](NC(=O)CSc4cc(Cl)nc(Cl)c4)[C@H]3SC2)n1 [Compound I-6, (6R,7R)-3-[(2-amino-6-hydroxy-4-pyrimidinyl)sulfanyl]-7-({2-[(2,6-dichloro-4-pyridinyl)sulfanyl]acetyl}amino)-8-oxo-5-thia-1-azabicyclo[4.2.0]oct-2-ene-2-carboxylic acid] | – | – | – | – | – | MIC [6, 13]: 2 µg/mL (≈ 3.56 µM); MIC [2, 14]: 0.5 µg/mL (≈ 0.891 µM); MIC [7, 15]: 1 µg/mL (≈ 1.78 µM); MIC [3, 16]: 0.063 µg/mL (≈ 0.112 µM); MIC [5, 17]: 2 µg/mL (≈ 3.56 µM) |
| Nc1cc(SC2=C(C(=O)O)N3C(=O)[C@@H](NC(=O)CSc4cc(Cl)nc(Cl)c4)[C@H]3SC2)nc(N)n1 [Compound I-5, (6R,7R)-3-[(2,6-diamino-4-pyrimidinyl)sulfanyl]-7-({2-[(2,6-dichloro-4-pyridinyl)sulfanyl]acetyl}amino)-8-oxo-5-thia-1-azabicyclo[4.2.0]oct-2-ene-2-carboxylic acid] | – | – | – | – | – | MIC [6, 13]: 4 µg/mL (≈ 7.14 µM); MIC [2, 14]: 1 µg/mL (≈ 1.78 µM); MIC [7, 15]: 1 µg/mL (≈ 1.78 µM); MIC [3, 16]: 0.063 µg/mL (≈ 0.112 µM); MIC [5, 17]: 1 µg/mL (≈ 1.78 µM) |
| CN[C@H](CC(C)C)C(=O)N[C@H]1C(=O)N[C@@H](CC(N)=O)C(=O)N[C@H]2C(=O)N[C@H]3C(=O)N[C@H](C(=O)N[C@H](C(=O)O)c4cc(O)cc(O)c4-c4cc3ccc4O)[C@H](O)c3ccc(c(Cl)c3)Oc3cc2cc(c3O[C@@H]2O[C@H](CO)[C@@H](O)[C@H](O)[C@H]2O[C@H]2C[C@](C)(N)[C@H](O)[C@H](C)O2)Oc2ccc(cc2Cl)[C@H]1O [Vancomycin, vancomycin, reference compound] | – | – | – | – | – | MIC ([6]; EFS004, 20 h): 1 µg/mL (≈ 0.69 µM); MIC ([1]; L239, 20 h): 2 µg/mL (≈ 1.38 µM); MIC ([2]; R005, 20 h): 1 µg/mL (≈ 0.69 µM); Sensitivity test result (MIC), S. epidermidis R005 [2, 16]: 1 µg/mL; MIC ([7]; K311, 20 h): 2 µg/mL (≈ 1.38 µM); MIC ([3]; 20 h): 1 µg/mL (≈ 0.69 µM); Sensitivity test result (MIC), Staphylococcus aureus giorgio [3, 16]: 1 µg/mL; MIC ([4]; Staphylococcus aureus, 241, 20 h): 2 µg/mL (≈ 1.38 µM); MIC ([5]; Staphylococcus aureus, 77, 20 h): 1 µg/mL (≈ 0.69 µM); Sensitivity test result (MIC), S. aureus 77 [5, 16]: 1 µg/mL |
| Nc1cc(SC2=C(C(=O)O)N3C(=O)[C@@H](NC(=O)CSc4cc(Cl)ccc4Cl)[C@H]3SC2)nc(N)n1 [Compound I-1, (6R,7R)-3-[(2,6-diamino-4-pyrimidinyl)sulfanyl]-7-({2-[(2,5-dichlorophenyl)-sulfanyl]acetyl}amino)-8-oxo-5-thia-1-azabicyclo[4.2.0]oct-2-ene-2-carboxylic acid] | 2 (≈ 3.57 µM) | 0.25 (≈ 0.447 µM) | < 0.008 | 2 (≈ 3.57 µM) | 0.25 (≈ 0.447 µM) | – |
